Tests used:
[1] = pH sensitivity of gamma in single layer film, normalized to C-1; conditions: developer pH 9.75, 10, 10.37, normalized by division with pH sensitivity of C-1
Excerpt: To measure the pH sensitivity of a single layer film, the following was done. A stepped exposure was applied to three identical strips of the film. One strip was processed with the normal C-41 process at pH of about 10. A second strip was processed in the same developer in which the pH was decreased to 9.75, while the third strip was processed in the same developer in which the pH was increased to 10.37.
(§1) The emulsion was an undyed, but chemically sensitized, 0.7 micron polymorphic silver iodobromide emulsion containing 3.5% mole of iodide. The coating structure is shown below.
(§2) Monolayer coatings were panchromatically exposed and processed in developer solutions of different pH values. A stop bath was used to eliminate any complications due to the continuing coupling reaction. The processing procedure and solution formulations are listed below.
The D-logE Status M gamma was measured for each film and the three gammas were used as input to a least-squares regression in which gamma was the response, and the factors were pH and pH-squared in a linear model with an intercept. Before regression, the three pH values were shifted (centered) to have a mean of zero (-0.31, 0, 0.31). The coefficient of the main effect, pH, in the regression is the pH sensitivity of gamma, which was normalized by division with the pH sensitivity of the comparison coupler C-1 (Table 2) that was processed at the same time as each test coupler.

[2] = Activity of image coupler in single layer film (maximum slope relative to control coupler C-1); conditions: developer pH=10, ratio to maximum slope of C-1 control, higher ratio implies higher activity
Procedure: as §1, §2
Further single layer film elements were prepared as above, given a stepped exposure and processed (developer pH=10). The activity of an image coupler was determined by determining the maximum slope between any two adjacent steps for the coupler and dividing by the maximum slope of a corresponding control sample containing coupler C-1 processed at the same time as the sample. A higher ratio implies higher activity. The logP of the R3 fragment (a quantity also referred to as π) was calculated as described in the Detailed Description of the invention.

[3] = Green pH sensitivity of gamma in multilayer film (format ML-A), normalized to C-1; conditions: for pH Sensitivity: multilayer film ML-A, developer pH 9.95 to 10.15, relative normalized pH sensitivity of green gamma vs C-1
Excerpt: The formulas for the multilayer organic components are provided following the examples. The multilayer format used was an ISO 200 speed format (designated ML-A).
Table 4 indicates the experiment number, whether it is a comparative or inventive example, the magenta coupler used in the designated green sensitive layers and the laydown in each of those layers.
To measure the green pH sensitivity of a multilayer film, the following was done. A neutral stepped exposure was applied to nine 35-mm strips of the film. One strip was processed with the normal C-41 process. The other eight strips were processed in a 2**3 factorial design in which the pH of the developer solution was varied from 9.95 to 10.15, the bromide was varied from 0.8 g/L to 1.8 g/L, and the concentration of the developer was varied from 3.5 g/L to 5.5 g/L. The green Status M photographic D-logE gammas were measured for each film at mid-exposure, and each gamma was normalized by dividing by the average gamma for all nine strips.
The nine normalized gammas that were obtained at the nine combinations of pH, Br, and developer concentration were used as input to a least-squares regression in which normalized gamma was the response, and the factors were pH, Br, and developer concentration in a linear model with an intercept. The coefficient of pH is the sensitivity of normalized gamma to pH, and this was further normalized (divided) by the sensitivity of the comparison coupler C-1 (Table 2) that was processed at the same time as each test coupler.

| Compound | pH Sensitivity [1] | Activity [2] | pH Sensitivity [3] | Activity ([2]; listed as SL-11) | magenta dye formed from coupler remaining in the film after processing ([3]; multilayer, solubility and washout of its magenta dye) |
| --- | --- | --- | --- | --- | --- |
| CCCCCCCCCCCCC(Oc1ccc(C(C)(C)CC(C)(C)C)cc1)C(=O)N(c1cccc(C(=O)O)c1)C(C)c1n[nH]c2c(Cl)c(C)nn12 (centres unmarked) [Mag-6] | 0.75 | 1.15 | – | – | – |
| CCCCCCCCCCCCC(c1n[nH]c2c(Cl)c(C)nn12)N(CCCCCCCC)C(=O)CCC(=O)O (centres unmarked) [Mag C-1] | 1.00 | 1.00 | 1.00 | – | – |
| CCCCCCCCCCCCCCCCCC(=O)N(c1cccc(C(=O)O)c1)C(C)c1n[nH]c2c(Cl)c(C)nn12 (centres unmarked) [Mag C-11] | 1.05 | 1.33 | 0.63 | – | – |
| CCCCCCCCCCCCCCCc1cccc(OC(CCCC)C(=O)N(c2cccc(C(=O)O)c2)C(C)c2n[nH]c3c(Cl)c(C)nn23)c1 (centres unmarked) [Mag-7] | 0.83 | 1.22 | 0.59 | – | – |
| CCCCCCCCCCC(Oc1ccc(S(=O)(=O)c2ccc(O)cc2)cc1)C(=O)Nc1ccc(CCCc2n[nH]c3c(Cl)c(C)nn23)cc1 (centres unmarked) [Mag C-2] | 1.39 | 0.51 | – | – | – |
| CCCCCCCCCCCCC(c1n[nH]c2c(Cl)c(C)nn12)N(C(=O)CCCCC)c1cccc(C(=O)O)c1 (centres unmarked) [Mag C-13] | – | 1.33 | – | – | – |
| CCCCCCCCCCCCCCCCCCCCCC(=O)N(c1cccc(C(=O)O)c1)C(CC)c1n[nH]c2c(Cl)c(C)nn12 (centres unmarked) [Mag-11] | – | – | 0.56 | – | – |
| CCCCCCCCCCCCCCCCCCCCCC(=O)N(c1cccc(C(=O)OC)c1)C(C)c1n[nH]c2c(Cl)c(C)nn12 (centres unmarked) [Mag C-14] | – | 0.43 | – | substantial loss of activity | – |
| CCCCCCCCCCCCCCCC(=O)N(c1cccc(C(=O)O)c1)C(C)c1n[nH]c2c(Cl)c(C)nn12 (centres unmarked) [Mag C-10] | 0.51 | 1.52 | 0.66 | – | – |
| CCCCCCCCCCCCCCCC(=O)N(c1ccc(CC(=O)O)cc1)C(c1ccccc1)c1n[nH]c2c(Cl)c(C)nn12 (centres unmarked) [Mag C-4] | 1.32 | 0.87 | – | – | – |
| CCCCCCCCCCCCCCCC(=O)N(c1cccc(CC(=O)O)c1)C(c1ccccc1)c1n[nH]c2c(Cl)c(C)nn12 (centres unmarked) [Mag C-8] | 1.43 | 1.26 | – | – | – |
| CCCCCC(=O)N(c1cccc(C(=O)O)c1)C(C)c1n[nH]c2c(Cl)c(C)nn12 (centres unmarked) [Mag C-15] | – | – | 0.41 | – | very little |
| CCCCCCCCCCCCCCCCCC(=O)N(CCCCCC(=O)O)C(C)c1n[nH]c2c(Cl)c(C)nn12 (centres unmarked) [Mag C-7] | 1.32 | 1.04 | – | – | – |
| CCCCCCCCCCCCCCCCCCCC(=O)N(CCCC(=O)O)C(c1ccccc1)c1n[nH]c2c(Cl)c(C)nn12 (centres unmarked) [Mag C-12] | 0.75 | 0.91 | – | – | – |
| CCCCCCCCCCCCCCCCCCCCCC(=O)N(c1cccc(C(=O)O)c1)C(C)c1n[nH]c2c(Cl)c(C)nn12 (centres unmarked) [Mag-1] | 0.83 | 1.50 | 0.52 | – | – |
| CCCCCCCCCCCCCCCC(=O)N(Cc1ccc(C(=O)O)cc1)C(C)c1n[nH]c2c(Cl)c(C)nn12 (centres unmarked) [Mag C-5] | 1.32 | 1.34 | – | – | – |
